Here are results for 22 molecules from ChEMBL document CHEMBL3797065, “Kaurane and abietane diterpenoids from the roots of Tripterygium wilfordii and their cytotoxic evaluation” (Bioorg Med Chem Lett, 2016).

Usually IC50 stands for the point on the concentration scale where inhibition reaches its midpoint. A low value points to higher potency.

Some results are limits rather than exact numbers.

The test system of experiment [1] is HepG2. Kind of experiment: Cytotoxicity against human HepG2 cells after 48 hrs by MTT assay. The experiment is classed as functional, cell-based. As to conditions: HepG2, 48 h. In general terms: Tetrazolium assays rely on reduction of a dye to a coloured formazan, in cell work by metabolically active cells.
The nature of experiment [2]: Cytotoxicity against human Hep3B cells after 48 hrs by MTT assay. The experiment is classed as functional, cell-based, Hep 3B2.
The test system of experiment [3] is Bcap37. Kind of experiment: Cytotoxicity against human Bcap37 cells after 48 hrs by MTT assay. The experiment is classed as functional, cell-based. Particulars: Bcap37, 48 h.
Experiment [4] concerns U-251. Kind of experiment: Cytotoxicity against human U251 cells after 48 hrs by MTT assay. The experiment is classed as functional, cell-based. As to conditions: U-251, 48 h.
The subject of experiment [5] is MCF7. Kind of experiment: Cytotoxicity against human MCF7 cells after 48 hrs by MTT assay. The experiment is classed as functional, cell-based. Particulars: MCF7, 48 h.
The test system of experiment [6] is A549. Kind of experiment: Cytotoxicity against human A549 cells after 48 hrs by MTT assay. Format: functional, cell-based. Particulars: A549, 48 h.

Turning to `CC(C)C1=CC(=O)C2=C(CC[C@H]3[C@@](C)(CO)C(=O)CC[C@]23C)C1=O`, the IC50 in experiment [1] was 26.3 µM; in experiment [2], 26 µM; in experiment [3], 13.3 µM; in experiment [4], > 100 µM; in experiment [5], 16.7 µM; in experiment [6], 19.9 µM.
As for `CC(C)c1ccc2c(c1)CC[C@H]1[C@@](C)(CO)C(=O)CC[C@]21C`, the IC50 in experiment [1] was 32.7 µM; in experiment [2] it was > 100 µM; in experiment [3] it was > 100 µM; in experiment [4] it was > 100 µM; in experiment [5], > 100 µM; in experiment [6] it was 39 µM.
Take `COc1c(C(C)C)cc(O)c2c1CC[C@H]1[C@@](C)(CO)C(=O)CC[C@]21C`: the IC50 is 21.9 µM in experiment [1]; 28.7 µM in experiment [2]; > 100 µM in experiment [3]; > 100 µM in experiment [4]; 23.2 µM in experiment [5]; 21.6 µM in experiment [6].
As for `C[C@]12C3=C4CC=C[C@@]3(O)OO[C@@H]1CC1=C(COC1=O)[C@@H]2CC4`, the half-inhibitory concentration (IC50) in experiment [1] came out at 10.9 µM; in experiment [2], 18 µM; in experiment [3], 8.11 µM; in experiment [4] it was 20.2 µM; in experiment [5] it was 23.3 µM; in experiment [6] it was 11.3 µM.
Take `CC(C)c1ccc2c(c1O)CC[C@H]1C(C)(C)[C@@H](O)CC[C@]21C`: the IC50 in experiment [1] is 46.3 µM; in experiment [2], > 100 µM; in experiment [3], > 100 µM; in experiment [4] it was > 100 µM; in experiment [5] it was > 100 µM; in experiment [6] it was > 100 µM.
As for `C=C1C(OC(C)=O)[C@]23[C@H](O)[C@H]1CC[C@H]2[C@]12CCCC(C)(C)[C@H]1[C@H](OC(C)=O)[C@@]3(O)OC2` (stereo not given in full), the IC50 in experiment [1] was 38.4 µM; in experiment [2] it was 48.3 µM; in experiment [3], > 100 µM; in experiment [4], > 100 µM; in experiment [5], 37.4 µM; in experiment [6], 21.9 µM.
With `CC1=C(C(=O)O)CC[C@]2(C)C3=C(CC[C@@H]12)C(=O)C(C(C)C)=CC3=O`, the IC50 in experiment [1], in experiment [2], in experiment [3], in experiment [4], in experiment [5] and in experiment [6] was > 100 µM each time.
On to `CC(C)C1=C[C@@]2(O)OO[C@@H]3CC(=O)[C@](C)(CO)[C@@H]4CCC(=C2[C@]43C)C1=O`, for which the 50% inhibitory concentration (IC50) in experiment [1] is > 100 µM; in experiment [2], 17.7 µM; in experiment [3], > 100 µM; in experiment [4], 24.9 µM; in experiment [5], > 100 µM; in experiment [6], 10.7 µM.
`O=c1[nH]cc(F)c(=O)[nH]1` [FLUOROURACIL]: the IC50 in experiment [2] worked out at 17.5 µM; in experiment [3], 15.5 µM; in experiment [4] it was 24.7 µM; in experiment [6], 21.6 µM.
Regarding `COc1c(C(C)C)cc(O)c2c1CCC1=C(C)C(=O)CC[C@@]12C`, the IC50 in experiment [1] stood at 5.1 µM; in experiment [2], 18.2 µM; in experiment [3], 7.93 µM; in experiment [4], 8.62 µM; in experiment [5], 5.73 µM; in experiment [6], 17.4 µM.
As to `CC(C)c1ccc2c(c1)C(=O)C[C@H]1[C@@](C)(CO)C(=O)CC[C@]21C` [TRIPTOBENZENE N], the IC50 is 43.7 µM in experiment [1]; > 100 µM in experiment [2]; > 100 µM in experiment [3]; > 100 µM in experiment [4]; > 100 µM in experiment [5]; 32.8 µM in experiment [6].
For `COc1c(C(C)C)cc(O)c2c1CC[C@H]1C(C)(C)C(=O)CC[C@]21C`, the IC50 was 47.8 µM in experiment [1]; 39.8 µM in experiment [2]; > 100 µM in experiment [3]; 29.3 µM in experiment [4]; > 100 µM in experiment [5]; > 100 µM in experiment [6].
On to `C[C@@]12CCC[C@]3(C(=O)OC1)[C@@H]2CC[C@@]12C[C@H](CC[C@H]13)[C@](C)(O)C2`, for which the IC50 in experiment [1] is 97.1 µM; in experiment [2] it was > 100 µM; in experiment [3] it was > 100 µM; in experiment [4], > 100 µM; in experiment [5], > 100 µM; in experiment [6], > 100 µM.
In the case of `C[C@@]1(O)C[C@@]23CC[C@H]4[C@@]5(CCC[C@]4(C)C(=O)OC5)[C@@H]2CC[C@H]1C3` [TRIPTERIFORDIN], the half-inhibitory concentration (IC50) in experiment [1], in experiment [2], in experiment [3], in experiment [4], in experiment [5] and in experiment [6] was > 100 µM throughout.
`C[C@@]1(O)C[C@@]23CC[C@H]4[C@@]5(CCC[C@]4(C)C(=O)OC5)[C@]2(O)CC[C@H]1C3`: the IC50 in experiment [1], in experiment [2], in experiment [3], in experiment [4], in experiment [5] and in experiment [6] was > 100 µM throughout.
For `CO[C@@H]1OC[C@@]2(C)CCC[C@]13[C@@H]1CC[C@H]4C[C@@]1(CC[C@@H]23)C[C@@]4(C)O`, the IC50 in experiment [1], in experiment [2], in experiment [3], in experiment [4], in experiment [5] and in experiment [6] was > 100 µM in each case.
For the molecule `COc1c(C(C)C)cc(O)c2c1CC[C@H]1C(C)=C(C(=O)O)CC[C@]21C`, the half-inhibitory concentration (IC50) in experiment [1], in experiment [2], in experiment [3], in experiment [4], in experiment [5] and in experiment [6] was > 100 µM in each case.
As to `COc1cc2c(c(O)c1C(C)C)CC[C@H]1C(C)=C(C(=O)O)CC[C@]21C`, the IC50 in experiment [1] was 42.5 µM; in experiment [2] it was 29.7 µM; in experiment [3] it was 37.6 µM; in experiment [4], > 100 µM; in experiment [5], > 100 µM; in experiment [6] it was > 100 µM.
Consider `CC(C)c1ccc2c(c1O)CC[C@H]1C3=C(CC[C@]21C)C(=O)OC3` [TRIPTOPHENOLIDE], for which the half-inhibitory concentration (IC50) in experiment [1] was 17 µM; in experiment [2], 22.2 µM; in experiment [3] it was 22.4 µM; in experiment [4] it was > 100 µM; in experiment [5], > 100 µM; in experiment [6] it was 42.9 µM.
Take `CC(C)c1ccc2c(c1O)CC[C@H]1[C@@](C)(CO)[C@@H](O)CC[C@]21C`: the 50% inhibitory concentration (IC50) in experiment [1] is 36.3 µM; in experiment [2], 48.7 µM; in experiment [3], > 100 µM; in experiment [4], > 100 µM; in experiment [5] it was 23.8 µM; in experiment [6], 30.1 µM.
Regarding `CO[C@@H]1OC[C@@]23CCC[C@@]1(C)[C@@H]2CC[C@@]12C[C@@H](CC[C@H]13)[C@](C)(O)C2` (relative stereo), the IC50 was 28.5 µM in experiment [1]; 48.9 µM in experiment [2]; 11.6 µM in experiment [3]; 13.5 µM in experiment [4]; > 100 µM in experiment [5]; 39.3 µM in experiment [6].
As to `CC(C)C1=CC(=O)C2=C(CC[C@H]3[C@@](C)(CO)[C@@H](O)CC[C@]23C)C1=O`, the concentration for half-maximal inhibition (IC50) in experiment [1] is > 100 µM; in experiment [2], 17.4 µM; in experiment [3], > 100 µM; in experiment [4], 43.6 µM; in experiment [5], 11.4 µM; in experiment [6], 11.5 µM.
